In article PMC9412534, “Diindolylmethane Derivatives: New Selective Blockers for T-Type Calcium Channels” (Membranes, 2022):
Like-named read-outs stand apart in the source and are kept apart here.

Legend:
A549 cells = assay: Cell viability MTT assay, A549; assay type: cell-based, human; details: for viability at 50 µM: A549, 50 µM, n = 4; for IC50: n = 3
Protocol: Human breast cancer cell line MCF-7 and T-47D, lung cancer cell line A549, and colon cancer cell line HT-29 were cultured under 5% carbon dioxide at 37 °C in DMEM Glutamax (Gibco, Life Technologies) supplemented with 10% (v/v) FBS. They were split in a ratio of 1:3–1:6 (ideally 2–4 × 10,000 cells/cm^2) when they reached 70–80% confluence using 0.25% Trypsin-EDTA. For cell viability MTT assay, cells were seeded into 96-well clear bottom culture plates (Corning, Lowell, MA, USA) at a density of 5 × 10^3 cells/well and settled at 37 °C for 24 h.
Seeded cells were treated with various concentrations of compounds for desired time period (24, 48 and 72 h). After the treatments, the media were removed from each well, and replaced with 25 μL of serum-free media and 25 μL of MTT Reagent (cat. no., ab211091; Abcam, Cambridge, MA, USA). The plate was then incubated at 37 °C for 3 h, and 75 μL of MTT Solvent (cat. no., ab211091; Abcam) was added into each well after incubation. The absorbance was evaluated at 590 nm. Cell-wells treated with 0.1% DMSO were used as positive control and no cell-wells were used as background control.

CaV3.2 = CaV3.2 (Homo sapiens, UniProt O95180); assay: T-type calcium channel window current FLIPR assay, CaV3.2; assay type: cell-based
Chain of CaV3.2 (O95180 whole entry): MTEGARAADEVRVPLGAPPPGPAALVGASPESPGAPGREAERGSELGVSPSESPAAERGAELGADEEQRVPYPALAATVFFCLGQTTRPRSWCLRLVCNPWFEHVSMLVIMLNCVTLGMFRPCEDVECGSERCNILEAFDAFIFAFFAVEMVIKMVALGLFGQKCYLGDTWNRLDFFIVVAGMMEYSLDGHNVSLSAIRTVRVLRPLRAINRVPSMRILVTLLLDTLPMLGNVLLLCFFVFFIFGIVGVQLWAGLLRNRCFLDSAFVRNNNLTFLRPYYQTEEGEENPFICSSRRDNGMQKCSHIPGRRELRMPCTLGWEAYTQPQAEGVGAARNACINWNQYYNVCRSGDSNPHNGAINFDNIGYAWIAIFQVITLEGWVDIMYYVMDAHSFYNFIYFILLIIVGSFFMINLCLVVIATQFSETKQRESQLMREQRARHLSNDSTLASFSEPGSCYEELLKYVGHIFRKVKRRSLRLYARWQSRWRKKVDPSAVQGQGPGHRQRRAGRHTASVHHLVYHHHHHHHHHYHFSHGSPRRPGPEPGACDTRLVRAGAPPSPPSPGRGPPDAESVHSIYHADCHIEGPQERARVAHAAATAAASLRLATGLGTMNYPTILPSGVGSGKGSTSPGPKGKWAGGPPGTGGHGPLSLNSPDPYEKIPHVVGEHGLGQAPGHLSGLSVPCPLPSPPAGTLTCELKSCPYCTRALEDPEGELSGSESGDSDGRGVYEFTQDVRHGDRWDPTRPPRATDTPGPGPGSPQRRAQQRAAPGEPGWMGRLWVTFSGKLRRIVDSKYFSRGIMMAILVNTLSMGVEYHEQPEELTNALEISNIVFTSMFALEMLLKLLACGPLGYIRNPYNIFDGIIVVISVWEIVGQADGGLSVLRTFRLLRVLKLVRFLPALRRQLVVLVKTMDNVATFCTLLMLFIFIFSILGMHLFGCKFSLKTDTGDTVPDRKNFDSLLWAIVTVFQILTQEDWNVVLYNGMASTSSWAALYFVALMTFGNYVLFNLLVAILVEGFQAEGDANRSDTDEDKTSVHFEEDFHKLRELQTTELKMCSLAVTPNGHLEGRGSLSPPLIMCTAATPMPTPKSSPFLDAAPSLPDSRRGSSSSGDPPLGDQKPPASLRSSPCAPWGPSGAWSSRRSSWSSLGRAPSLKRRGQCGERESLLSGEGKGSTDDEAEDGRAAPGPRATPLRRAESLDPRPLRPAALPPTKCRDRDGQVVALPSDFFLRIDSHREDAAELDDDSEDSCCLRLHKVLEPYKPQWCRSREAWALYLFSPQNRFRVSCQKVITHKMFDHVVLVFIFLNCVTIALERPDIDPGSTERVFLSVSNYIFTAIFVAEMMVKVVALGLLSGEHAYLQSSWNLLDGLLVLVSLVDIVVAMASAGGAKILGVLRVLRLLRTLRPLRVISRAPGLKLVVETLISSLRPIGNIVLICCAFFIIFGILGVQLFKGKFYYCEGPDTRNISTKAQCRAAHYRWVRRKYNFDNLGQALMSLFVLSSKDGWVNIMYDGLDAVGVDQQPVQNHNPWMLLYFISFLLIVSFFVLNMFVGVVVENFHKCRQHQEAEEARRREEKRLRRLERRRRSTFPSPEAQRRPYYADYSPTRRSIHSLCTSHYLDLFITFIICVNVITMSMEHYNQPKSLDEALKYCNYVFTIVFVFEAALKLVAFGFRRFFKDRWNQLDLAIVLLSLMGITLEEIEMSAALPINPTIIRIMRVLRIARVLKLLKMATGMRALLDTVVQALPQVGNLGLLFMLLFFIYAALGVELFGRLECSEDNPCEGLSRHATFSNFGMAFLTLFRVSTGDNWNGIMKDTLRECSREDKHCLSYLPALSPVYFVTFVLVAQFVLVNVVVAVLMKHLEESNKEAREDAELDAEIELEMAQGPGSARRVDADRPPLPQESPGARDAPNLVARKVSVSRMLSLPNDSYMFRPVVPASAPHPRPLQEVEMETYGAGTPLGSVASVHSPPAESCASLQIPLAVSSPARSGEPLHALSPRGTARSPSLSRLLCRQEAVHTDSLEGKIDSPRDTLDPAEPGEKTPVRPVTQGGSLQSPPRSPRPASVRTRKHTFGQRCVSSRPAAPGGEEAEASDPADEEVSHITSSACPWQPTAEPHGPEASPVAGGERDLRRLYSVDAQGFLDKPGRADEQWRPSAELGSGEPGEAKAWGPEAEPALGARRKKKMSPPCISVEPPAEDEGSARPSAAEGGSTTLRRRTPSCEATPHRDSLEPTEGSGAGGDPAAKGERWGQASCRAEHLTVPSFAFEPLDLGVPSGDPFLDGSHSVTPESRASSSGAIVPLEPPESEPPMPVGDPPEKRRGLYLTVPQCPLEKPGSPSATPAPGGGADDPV
Protocol: (§1) The human embryonic kidney 293 (HEK 293) cell lines (from Emmanuel Bourinet, Montpellier, France) stably expressing CaV3.2 or CaV3.3 were cultured under 5% carbon dioxide at 37 °C in Dulbecco’s Modified Eagle Medium (DMEM) Glutamax (Gibco, Life Technologies, Carlsbad, CA, USA) supplemented with 10% (v/v) fetal bovine serum (FBS), 100 U/mL penicillin, 100 μg/mL streptomycin (Gibco, Life Technologies, Carlsbad, CA, USA), and 750 μg/mL geneticin (G418) (Gibco, Life Technologies). The Chinese Hamster Ovary (CHO) cell lines (Emmanuel Bourinet, Montpellier, France) expressing CaV3.1 were cultured under 5% carbon dioxide at 37 °C in Alpha Minimum Essential Media (MEM) Glutamax (Gibco, Life Technologies), supplemented with 10% (v/v) fetal bovine serum (FBS) and 300 μg/mL geneticin (G418) (Gibco, Life Technologies). The human neuroblastoma SH-SY5Y cells (Victor Diaz, Goettingen, Germany) were cultured under 5% carbon dioxide at 37 °C in RPMI 1640 antibiotic-free medium (Invitrogen, Carlsbad, CA, USA), supplemented with 15% FBS and 2 mM GlutaMAX™ (Invitrogen). D-PBS (Gibco, Life Technologies) was used to wash the cells, and 0.25% Trypsin-EDTA (Gibco, Life Technologies) was used to detach cells from the flask surface. They were split in a ratio of 1:5 (ideally 1000 cells/cm^2) when they reached 70–80% confluence (every 2–3 days). Transiently transfected CaV3.1 HEK293 T cells were used in FLIPR Assays. HEK 293 T cells were cultured under 5% carbon dioxide at 37 °C in DMEM supplemented with 10% (v/v) FBS. D-PBS was used to wash the cells, and 0.25% Trypsin-EDTA was used to detach cells from the flask surface. The cells were split and seeded at 6 million cells per T175 flask, to reach 70–80% confluence after 24 h. The next day, 12 μg DNA of human CaV3.1 was incubated in 900 μL serum-free DMEM with 36 μL FuGENE HD transfection reagent (Promega Corporation, Madison, WI, USA) (1:3 DNA/Fugene ratio) for 20 min, and then the mixture was added into the cell flask slowly, drop by drop. After the transfection, the cells were cultured under 5% carbon dioxide at 37 °C for 24 h and then moved to a 28 °C incubator.
(§2) HEK 293 cells stably expressing CaV3.2 or CaV3.3 were seeded into 384-well black wall clear bottom plates (Corning) at a density of 30,000 cells per well. Transiently transfected CaV3.1HEK293 T cells were seeded into 384-well black wall clear bottom plates at a density of 60,000 cells per well. Once the cells reached 90–95% confluence after 24 h, the media were removed from the wells and replaced with 20 μL of 10% calcium 4 dye (Molecular Devices, Sunnyvale, CA, USA) in HBSS-HEPES (containing 5 mM KCl, 10 mM HEPES, 140 mM NaCl, 10 mM glucose, and 0.5 mM CaCl2, pH 7.4) with 0.1% bovine serum albumin (BSA). The cells were incubated for 30 min at 37 °C in the presence of 5% carbon dioxide. Each well on the reagent plates for the first addition contained 15 μL different concentrations of compounds dissolved in HBSS-HEPES containing 0.1% BSA and <0.5% DMSO and was incubated for 20 min after loaded. Positive and negative controls contained 15 μL of HBSS-HEPES (0.1% BSA) alone. The plates were placed in the FLIPR^TETRA (Molecular Devices, Sunnyvale, CA, USA) programmed to measure maximum fluorescence intensity following a second addition of the agonist 5 mM CaCl2. The fluorescence readings were recorded and converted as described previously, and HBSS-HEPES (0.1% BSA) was used in the second addition as a negative control.

CaV3.3 = CaV3.3 (Homo sapiens, UniProt Q9P0X4); assay: T-type calcium channel window current FLIPR assay, CaV3.3; assay type: cell-based
Chain of CaV3.3 (Q9P0X4 whole entry): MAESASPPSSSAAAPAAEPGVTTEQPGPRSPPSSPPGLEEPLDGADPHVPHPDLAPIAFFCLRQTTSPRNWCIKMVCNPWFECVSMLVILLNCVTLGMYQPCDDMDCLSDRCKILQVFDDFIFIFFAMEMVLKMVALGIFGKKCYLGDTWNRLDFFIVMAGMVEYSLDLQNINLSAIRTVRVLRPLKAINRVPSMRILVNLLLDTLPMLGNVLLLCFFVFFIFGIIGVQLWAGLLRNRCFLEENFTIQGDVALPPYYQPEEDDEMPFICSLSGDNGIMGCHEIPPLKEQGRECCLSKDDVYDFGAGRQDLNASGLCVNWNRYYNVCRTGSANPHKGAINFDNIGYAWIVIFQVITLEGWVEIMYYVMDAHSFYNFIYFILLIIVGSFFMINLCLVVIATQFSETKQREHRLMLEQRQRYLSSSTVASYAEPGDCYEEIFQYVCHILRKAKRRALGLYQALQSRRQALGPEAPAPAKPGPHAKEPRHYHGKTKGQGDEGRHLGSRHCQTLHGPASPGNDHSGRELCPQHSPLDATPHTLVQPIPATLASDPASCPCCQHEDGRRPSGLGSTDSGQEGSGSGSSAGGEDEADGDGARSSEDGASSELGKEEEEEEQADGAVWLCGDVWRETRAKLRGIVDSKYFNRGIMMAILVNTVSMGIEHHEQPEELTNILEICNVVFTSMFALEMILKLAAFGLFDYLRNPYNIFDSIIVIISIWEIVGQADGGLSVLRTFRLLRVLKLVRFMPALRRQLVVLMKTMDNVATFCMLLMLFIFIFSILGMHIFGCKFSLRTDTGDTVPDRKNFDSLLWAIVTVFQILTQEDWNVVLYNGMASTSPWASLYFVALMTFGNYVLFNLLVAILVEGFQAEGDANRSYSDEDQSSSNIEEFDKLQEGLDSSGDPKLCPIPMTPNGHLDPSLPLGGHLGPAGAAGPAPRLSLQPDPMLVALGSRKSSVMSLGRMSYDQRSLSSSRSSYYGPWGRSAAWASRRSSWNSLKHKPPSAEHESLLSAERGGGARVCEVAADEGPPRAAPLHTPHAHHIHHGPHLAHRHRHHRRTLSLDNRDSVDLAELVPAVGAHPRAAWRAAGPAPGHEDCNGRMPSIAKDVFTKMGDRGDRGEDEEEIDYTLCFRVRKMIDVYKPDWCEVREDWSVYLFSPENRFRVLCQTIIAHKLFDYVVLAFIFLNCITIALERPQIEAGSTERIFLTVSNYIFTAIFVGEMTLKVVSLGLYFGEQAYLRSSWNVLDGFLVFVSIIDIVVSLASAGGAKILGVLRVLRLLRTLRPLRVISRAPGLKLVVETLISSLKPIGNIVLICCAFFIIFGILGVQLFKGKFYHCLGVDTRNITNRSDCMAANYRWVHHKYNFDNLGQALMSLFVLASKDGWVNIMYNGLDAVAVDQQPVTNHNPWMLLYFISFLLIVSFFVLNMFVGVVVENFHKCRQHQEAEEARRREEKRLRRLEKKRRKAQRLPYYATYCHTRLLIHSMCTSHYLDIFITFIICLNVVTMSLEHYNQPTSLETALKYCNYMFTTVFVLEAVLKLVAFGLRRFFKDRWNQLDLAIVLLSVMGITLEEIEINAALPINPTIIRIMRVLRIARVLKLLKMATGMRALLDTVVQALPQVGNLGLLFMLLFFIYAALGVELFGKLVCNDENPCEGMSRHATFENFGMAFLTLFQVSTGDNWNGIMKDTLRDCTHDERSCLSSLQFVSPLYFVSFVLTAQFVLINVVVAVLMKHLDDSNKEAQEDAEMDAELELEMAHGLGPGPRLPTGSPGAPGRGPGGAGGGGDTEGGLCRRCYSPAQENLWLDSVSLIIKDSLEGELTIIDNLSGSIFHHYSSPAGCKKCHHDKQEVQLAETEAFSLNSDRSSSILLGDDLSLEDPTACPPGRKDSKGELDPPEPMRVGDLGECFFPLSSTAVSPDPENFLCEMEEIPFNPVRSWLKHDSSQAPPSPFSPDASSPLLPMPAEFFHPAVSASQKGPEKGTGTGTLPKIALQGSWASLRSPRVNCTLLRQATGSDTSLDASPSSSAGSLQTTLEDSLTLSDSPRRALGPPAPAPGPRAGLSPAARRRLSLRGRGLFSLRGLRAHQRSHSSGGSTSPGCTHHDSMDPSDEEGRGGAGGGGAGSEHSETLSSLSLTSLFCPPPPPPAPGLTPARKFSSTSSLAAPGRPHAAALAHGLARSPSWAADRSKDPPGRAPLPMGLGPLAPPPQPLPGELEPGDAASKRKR
Protocol: as §1, §2

[1] = Homo sapiens, A549, 72 h, 72 h treatment
[2] = FLIPR window current, n = 3, read-out: IC50 CaV3.2 (LVA CaVs)
[3] = FLIPR, one separate experiment in quadruplicate (n = 4), read-out: IC50 of representative concentration-response curve, CaV3.2 window current
[4] = FLIPR window current, n = 3, read-out: IC50 CaV3.3 (LVA CaVs)
[5] = FLIPR, one separate experiment in quadruplicate (n = 4), read-out: IC50 of representative concentration-response curve, CaV3.3 window current

IC50 (A549 cells; [1]) [µM] | IC50 (CaV3.2; [2]) [µM] | IC50 (CaV3.2; [3]) [µM] | CaV3.3 window current potency better than at CaV3.1 and CaV3.2 (CaV3.3; FLIPR) | CaV3.3 window current potency better than potency at HVA CaVs (CaV3.3; FLIPR) [fold] | IC50 (CaV3.3; [4]) [µM] | IC50 (CaV3.3; [5]) [µM] | reduced potency for CaV3.2 window current compared to DIM (CaV3.2; FLIPR) | reduced potency for CaV3.3 window current compared to DIM (CaV3.3; FLIPR) [fold] | IC50 (A549 cells; 72 h treatment) [µM] | IC50 (A549 cells; Homo sapiens, A549, 24 h, 24 h treatment) [µM] | IC50 (A549 cells; Homo sapiens, A549, 48 h, 48 h treatment) [µM] | SMILES | viability at 50 µM (A549 cells; Homo sapiens, 72 h treatment) [%] | IC50 (CaV3.2; IC50 CaV3.2 (LVA CaVs), FLIPR window current, n = 3) [µM] | IC50 (CaV3.2; IC50 of representative concentration-response curve, CaV3.2 window current, FLIPR, one separate experiment in quadruplicate (n = 4)) [µM] | less active at HVA CaVs than at CaV3.2 and CaV3.3 (CaV3.3; FLIPR) [fold] | IC50 (CaV3.3; IC50 CaV3.3 (LVA CaVs), FLIPR window current, n = 3) [µM] | IC50 (CaV3.3; IC50 of representative concentration-response curve, CaV3.3 window current, FLIPR, one separate experiment in quadruplicate (n = 4)) [µM]
47 | 52.2 ± 3.8 | 54.7 | ~ 25 fold | > 27 | 2.09 ± 0.43 | 2.77 | – | – | – | – | – | c1ccc2c(Cc3c[nH]c4ccccc34)c[nH]c2c1 [DIM, 3,3′-diindolylmethane, reference compound] | 55.6 ± 1.13 | – | – | – | – | –
66 | 73.9 ± 2.48 | 74 | – | – | 9.07 ± 0.69 | 8.18 | ~ 1.4 fold | 4.3 | – | – | – | O=C(c1c[nH]c2ccccc12)c1c[nH]c2ccccc12 [DIM-one, 3,3′-diindolylmethanone] | 81.3 ± 3 | – | – | – | – | –
3 | 57.3 ± 3.38 | – | – | – | 62.5 ± 4.1 | – | – | – | 3.5 | 8 | 4.7 | O=C(c1c[nH]c2cc(Br)ccc12)c1c[nH]c2cc(Br)ccc12 [IV] | 2.92 ± 0.29 | – | – | – | – | –
– | – | – | – | – | – | – | – | – | – | – | – | O=C(c1cn(Cc2ccccc2)c2ccccc12)c1cn(Cc2ccccc2)c2ccccc12 [IX, bis(1-benzyl-1H-indol-3-yl)methanone] | – | 3.05 ± 0.51 | 3.28 | > 7 | 6.68 ± 0.79 | 5.27
